The values that follow are results of earlier work, collected in patent US20110004098A1, “ESTER IMAGING AGENTS” (priority 2008, published 2011).

SMILES strings stand for the structures.

For this data set, the system named is bladder carcinoma in situ. The conditions noted are these: cystoscopy with Hexvix, as opposed to 58% with white light cystoscopy.

Consider `CCCCCCOC(=O)CCC(=O)CN.Cl` [Hexvix, n-hexyl 5-aminolevulinate hydrochloride], for which the “sensitivity of detecting bladder carcinoma in situ” value is 97%.
